{"source": "paper PMC7720599", "about": "“Rhenium N-heterocyclic carbene complexes block growth of aggressive cancers by inhibiting FGFR- and SRC-mediated signalling” (Journal of Experimental & Clinical Cancer Research : CR, 2020)", "test_system": "zebrafish embryos", "experiment": "Zebrafish embryo teratogenicity", "type": "in vivo", "details": "treatment from 2hpf, images at 24hpf", "description": "Embryos were observed daily at 24 h intervals and toxicity scores (hatching and mortality) were recorded until 120hpf. For heart rate assessments, embryos were anesthetized with tricaine (ethyl 3-aminobenzoate methanesulfonate) at 48hpf and counted under the stereomicroscope for 1min. To assess JVG045 teratogenicity compared to BGJ398, embryos were treated with the compounds starting from 2hpf and results observed at 24hpf. Compounds were prepared in DMSO and diluted to the final concentration in E2 embryo medium. DMSO was used as negative control.", "data": [{"smiles": "CCN1CCN(c2ccc(Nc3cc(N(C)C(=O)Nc4c(Cl)c(OC)cc(OC)c4Cl)ncn3)cc2)CC1", "note": "[BGJ398, 3-(2,6-Dichloro-3,5-dimethoxy-phenyl)-1-{6-[4-(4-ethyl-piperazin-1-yl)-phenylamino]-pyrimidin-4-yl}-1-methyl-urea]", "values": [{"measurement": "concentration at which developmental defects start", "result": "500 to 1000", "unit": "nM"}]}]}
